From patent US20100120850A1, “Quinoline Derivatives, Pharmaceutical Compositions Comprising Them, and Their Use in Treating Central Nervous System and Peripheral Diseases” (priority 2007, published 2010)

Target: T1, NK-3 receptor (Homo sapiens, UniProt P29371)
T1 construct: expressed in transfected cells
T1 sequence (P29371 1-465): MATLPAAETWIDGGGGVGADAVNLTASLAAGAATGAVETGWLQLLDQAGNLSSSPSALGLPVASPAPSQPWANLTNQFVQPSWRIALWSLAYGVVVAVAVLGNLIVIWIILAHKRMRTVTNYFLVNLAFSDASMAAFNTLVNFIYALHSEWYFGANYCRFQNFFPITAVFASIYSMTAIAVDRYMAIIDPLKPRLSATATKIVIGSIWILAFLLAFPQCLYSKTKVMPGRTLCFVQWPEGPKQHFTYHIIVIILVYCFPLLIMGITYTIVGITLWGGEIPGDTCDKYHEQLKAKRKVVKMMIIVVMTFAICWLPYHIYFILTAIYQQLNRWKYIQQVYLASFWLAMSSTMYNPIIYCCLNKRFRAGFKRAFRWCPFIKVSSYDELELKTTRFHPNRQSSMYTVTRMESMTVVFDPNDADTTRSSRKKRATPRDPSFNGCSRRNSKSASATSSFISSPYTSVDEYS
Test: Assay for NK-3 functional activity (senktide-induced calcium mobilization, FLIPR)
Assay type: cell-based
Conditions: compared with the other diastereomer (sulfur center) separated by chiral SFC
Text: A human NK-3 receptor gene was cloned using methods similar to those described for other human NK receptors (Aharony et al., Mol. Pharmacol. 45:9-19, 1994; Caccese et al., Neuropeptides 33, 239-243, 1999). The DNA sequence of the cloned NK-3 receptor differed from the published sequence (Buell et al., FEBS Letts. 299, 90-95, 1992; Huang et al., Biochem. Biophys. Res. Commun 184,966-972, 1992) having a silent single T>C base change at nucleotide 1320 of the coding sequence. Since the change is silent, the cloned gene provides a primary amino acid sequence for the encoded NK-3 receptor protein identical to the published sequence. […]
Generally, NK-3 functional activity may be assessed by using calcium mobilization assays in stable NK-3r-expressing cell lines. […] Agonists may be added to the cells and fluorescence responses continuously recorded for up to 5 min. […] The action of agonists may be assessed by observing their intrinsic activity in such a system.
NK-3 receptor expressing CHO cells were maintained in growth media (Ham's F12 medium, 10% FBS, 2 mM L-glutamine, and […] Hygromycin B). […] To quantify NK-3 receptor-induced calcium mobilization, cells were first washed with assay buffer consisting of Hanks' Balanced Salt Solution, 15 mM HEPES, and 2.5 mM probenecid, pH 7.4. […] The resulting data was analyzed using XLfit software (IDBS manufacturer) to determine EC50 and IC50 values.

Compound | biological activity when tested in the assay for NK-3 functional activity
CC[C@H](NC(=O)c1c([S+](C)[O-])c(-c2ccccc2)nc2ccccc12)c1ccccc1 (single isomer, unassigned) [Example 2 first eluting compound] | substantially greater biological activity
C[S+]([O-])c1c(-c2ccccc2)nc2ccccc2c1C(=O)N[C@H](c1ccccc1)C1CC1 (single isomer, unassigned) [Example 8 second eluting compound] | substantially greater biological activity
